According to PubChem BioAssay AID248 (DTP/NCI, 2004):
Where “and” joins values, the source holds several entries; their conditions need not be identical. Identical values can stand only once. Inconclusive results and toxic doses are left out.

System: L1210 leukemia ip in BDF1 mice, survival T/C
Experiment: NCI In Vivo Anticancer Drug Screen. Data for tumor model L1210 Leukemia (intraperitoneal) in B6D2F1 (BDF1) mice
Details: endpoint: mean survival time, higher = longer survival
Method in brief: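 Read-out is survival time, reported as the treated-group measurement over the vehicle-control measurement.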

[1] = dose: 50.0 mg/kg/injection, schedule: Q01DX001 (ip), vehicle: carboxymethylcellulose (CMC)
[2] = dose: 100.0 mg/kg/injection, schedule: Q01DX001 (ip), vehicle: carboxymethylcellulose (CMC)
[3] = dose: 200.0 mg/kg/injection, schedule: Q01DX001 (ip), vehicle: carboxymethylcellulose (CMC)
[4] = dose: 400.0 mg/kg/injection, schedule: Q01DX001 (ip), vehicle: carboxymethylcellulose (CMC)
[5] = dose: 100.0 mg/kg/injection, schedule: Q04DX003 (ip), vehicle: Klucel (hydroxypropylcellulose) (HPC)
[6] = dose: 200.0 mg/kg/injection, schedule: Q04DX003 (ip), vehicle: Klucel (hydroxypropylcellulose) (HPC)
[7] = dose: 400.0 mg/kg/injection, schedule: Q04DX003 (ip), vehicle: Klucel (hydroxypropylcellulose) (HPC)
[8] = dose: 100.0 mg/kg/injection, schedule: Q01DX009 (ip), vehicle: Klucel (hydroxypropylcellulose) (HPC)
[9] = dose: 200.0 mg/kg/injection, schedule: Q01DX009 (ip), vehicle: Klucel (hydroxypropylcellulose) (HPC)
[10] = dose: 400.0 mg/kg/injection, schedule: Q01DX009 (ip), vehicle: Klucel (hydroxypropylcellulose) (HPC)
[11] = dose: 100.0 mg/kg/injection, schedule: Q01DX001 (ip), vehicle: saline
[12] = dose: 200.0 mg/kg/injection, schedule: Q01DX001 (ip), vehicle: saline
[13] = dose: 400.0 mg/kg/injection, schedule: Q01DX001 (ip), vehicle: saline
[14] = dose: 50.0 mg/kg/injection, schedule: Q04DX003 (ip), vehicle: Klucel (hydroxypropylcellulose) (HPC)

Cc1cc(N(C)C)ccc1N=Nc1ccccc1
T/C [1]: 102 % of control
T/C [2]: 102 % of control
T/C [3]: 107 % of control
T/C [4]: 96 % of control

O=C(O)C1(C(=O)O)CCC1.[NH2-].[NH2-].[Pt+2]
T/C (dose: 2.0 mg/kg/injection, schedule: Q01DX009 (ip), vehicle: saline): 97 % of control
T/C (dose: 4.0 mg/kg/injection, schedule: Q01DX001 (ip), vehicle: saline): 100 % of control
T/C (dose: 4.0 mg/kg/injection, schedule: Q01DX009 (ip), vehicle: saline): 100 % of control
T/C (dose: 8.0 mg/kg/injection, schedule: Q01DX001 (ip), vehicle: saline): 100 % of control
T/C (dose: 8.0 mg/kg/injection, schedule: Q01DX009 (ip), vehicle: saline): 108 % of control
T/C (dose: 16.0 mg/kg/injection, schedule: Q01DX001 (ip), vehicle: saline): 102 % of control
T/C (dose: 16.0 mg/kg/injection, schedule: Q01DX009 (ip), vehicle: saline): 119 % of control
T/C (dose: 25.0 mg/kg/injection, schedule: Q04DX003 (ip), vehicle: saline): 110 % of control and 113 % of control
T/C (dose: 64.0 mg/kg/injection, schedule: Q01DX009 (ip), vehicle: saline): 171 % of control
T/C (dose: 100.0 mg/kg/injection, schedule: Q04DX003 (ip), vehicle: saline): 154 % of control and 176 % of control
T/C (dose: 128.0 mg/kg/injection, schedule: Q01DX001 (ip), vehicle: saline): 152 % of control
T/C (dose: 200.0 mg/kg/injection, schedule: Q04DX003 (ip), vehicle: saline): 97 % of control and 105 % of control

C(CCCCc1nn[nH]n1)CCCc1nn[nH]n1
T/C [5]: 94 % of control
T/C [6]: 103 % of control
T/C [7]: 91 % of control

CN=C(NC)NN
T/C (dose: 30.0 mg/kg/injection, schedule: Q01DX Z (ip), vehicle: methylcellulose (MC)): 100 % of control
T/C (dose: 60.0 mg/kg/injection, schedule: Q01DX Z (ip), vehicle: methylcellulose (MC)): 103 % of control
T/C (dose: 100.0 mg/kg/injection, schedule: Q04DX002 (ip), vehicle: saline with Tween-80): 95 % of control
T/C (dose: 125.0 mg/kg/injection, schedule: Q01DX Z (oral), vehicle: methylcellulose (MC)): 101 % of control
T/C (dose: 200.0 mg/kg/injection, schedule: Q04DX002 (ip), vehicle: saline with Tween-80): 95 % of control
T/C (dose: 240.0 mg/kg/injection, schedule: Q01DX Z (ip), vehicle: methylcellulose (MC)): 108 % of control
T/C (dose: 250.0 mg/kg/injection, schedule: Q01DX Z (oral), vehicle: methylcellulose (MC)): 95 % of control
T/C (dose: 270.0 mg/kg/injection, schedule: Q01DX Z (ip), vehicle: saline): 105 % of control
T/C (dose: 375.0 mg/kg/injection, schedule: Q01DX Z (ip), vehicle: methylcellulose (MC)): 110 % of control
T/C (dose: 400.0 mg/kg/injection, schedule: Q04DX002 (ip), vehicle: saline with Tween-80): 100 % of control
T/C (dose: 405.0 mg/kg/injection, schedule: Q01DX Z (ip), vehicle: saline): 97 % of control
T/C (dose: 480.0 mg/kg/injection, schedule: Q01DX Z (ip), vehicle: methylcellulose (MC)): 102 % of control
T/C (dose: 609.0 mg/kg/injection, schedule: Q01DX Z (ip), vehicle: saline): 103 % of control

NC1C(=O)NC(=O)NC1=S (configuration not stated)
T/C (dose: 29.0 mg/kg/injection, schedule: Q01DX Z (ip), vehicle: methylcellulose (MC)): 100 % of control
T/C (dose: 45.0 mg/kg/injection, schedule: Q01DX Z (ip), vehicle: methylcellulose (MC)): 107 % of control

CC(=O)c1cccc(NC(=O)c2c(Br)c(Br)c(Br)c(Br)c2C(=O)O)c1
T/C [8]: 97 % of control
T/C [9]: 104 % of control
T/C [10]: 109 % of control

CCOC(=O)C(CC)(OC(C)=O)C(=O)CBr (configuration not stated)
T/C (dose: 75.0 mg/kg/injection, schedule: Q01DX001 (ip), vehicle: acetone): 87 % of control

OCC(O)C(O)C(O)C(c1ccc(F)cc1)c1ccc(F)cc1 (configuration not stated)
T/C (dose: 50.0 mg/kg/injection, schedule: Q01DX001 (ip), vehicle: saline): 97 % of control
T/C [11]: 100 % of control
T/C [12]: 100 % of control
T/C [13]: 103 % of control

C(Sc1ccccc1)=C(Sc1ccccc1)Sc1ccccc1
T/C (dose: 6.25 mg/kg/injection, schedule: Q01DX009 (ip), vehicle: other): 94 % of control
T/C (dose: 125.0 mg/kg/injection, schedule: Q01DX009 (ip), vehicle: other): 105 % of control
T/C (dose: 250.0 mg/kg/injection, schedule: Q01DX009 (ip), vehicle: other): 98 % of control

O=C1c2ccccc2C(=O)N1c1cc(=O)[nH]c(=O)[nH]1
T/C (dose: 25.0 mg/kg/injection, schedule: Q04DX003 (ip), vehicle: Klucel (hydroxypropylcellulose) (HPC)): 111 % of control
T/C [14]: 92 % of control

Cc1cc(N)c2ccccc2[n+]1CCCCCCCCCC[n+]1c(C)cc(N)c2ccccc21
T/C (dose: 0.75 mg/kg/injection, schedule: Q01DX009 (ip), vehicle: Klucel (hydroxypropylcellulose) (HPC)): 100 % of control
T/C (dose: 1.5 mg/kg/injection, schedule: Q01DX009 (ip), vehicle: Klucel (hydroxypropylcellulose) (HPC)): 109 % of control
T/C (dose: 1.5 mg/kg/injection, schedule: Q04DX003 (ip), vehicle: Klucel (hydroxypropylcellulose) (HPC)): 103 % of control
T/C (dose: 3.0 mg/kg/injection, schedule: Q01DX009 (ip), vehicle: Klucel (hydroxypropylcellulose) (HPC)): 119 % of control and 124 % of control
T/C (dose: 3.0 mg/kg/injection, schedule: Q04DX003 (ip), vehicle: Klucel (hydroxypropylcellulose) (HPC)): 110 % of control
T/C (dose: 6.0 mg/kg/injection, schedule: Q04DX003 (ip), vehicle: Klucel (hydroxypropylcellulose) (HPC)): 116 % of control
T/C (dose: 12.5 mg/kg/injection, schedule: Q04DX003 (ip), vehicle: Klucel (hydroxypropylcellulose) (HPC)): 103 % of control

O=NN(CCCC(=O)O)C(=O)NCCCC(=O)O
T/C (dose: 25.0 mg/kg/injection, schedule: Q01DX Z (ip), vehicle: carboxymethylcellulose (CMC)): 103 % of control
T/C (dose: 50.0 mg/kg/injection, schedule: Q01DX Z (ip), vehicle: carboxymethylcellulose (CMC)): 90 % of control
T/C (dose: 100.0 mg/kg/injection, schedule: Q01DX Z (ip), vehicle: carboxymethylcellulose (CMC)): 100 % of control
T/C (dose: 200.0 mg/kg/injection, schedule: Q01DX Z (ip), vehicle: carboxymethylcellulose (CMC)): 94 % of control
T/C (dose: 300.0 mg/kg/injection, schedule: Q01DX Z (ip), vehicle: carboxymethylcellulose (CMC)): 95 % of control

COc1cc(Cl)ccc1NC(=O)Oc1ccc2c(C)cc(=O)oc2c1
T/C [8]: 100 % of control

O=C(CC(CC(=O)c1ccccc1)c1ccccc1)c1ccccc1
T/C [1]: 91 % of control
T/C [2]: 94 % of control
T/C [3]: 94 % of control
T/C [4]: 94 % of control

CC(C)(C)CC(C)(C)N=C=S
T/C (dose: 25.0 mg/kg/injection, schedule: Q01DX009 (ip), vehicle: saline with Tween-80): 100 % of control
T/C (dose: 50.0 mg/kg/injection, schedule: Q01DX009 (ip), vehicle: saline with Tween-80): 94 % of control
T/C (dose: 100.0 mg/kg/injection, schedule: Q01DX009 (ip), vehicle: saline with Tween-80): 96 % of control and 97 % of control

CCOC(=O)c1cnc(SC)nc1C(=O)OCC
T/C [14]: 102 % of control
T/C [5]: 94 % of control
T/C [6]: 102 % of control

C(#CSCc1ccccc1)SCc1ccccc1
T/C [8]: 94 % of control
T/C [5]: 104 % of control
T/C [9]: 96 % of control
T/C [6]: 102 % of control
T/C [10]: 97 % of control
T/C [7]: 104 % of control

Nc1nc(N)c(CCCOc2ccc(NC(=O)c3cc(S(=O)(=O)F)ccc3Cl)cc2)c(N)n1
T/C (dose: 100.0 mg/kg/injection, schedule: Q01DX001 (ip), vehicle: Klucel (hydroxypropylcellulose) (HPC)): 99 % of control
T/C (dose: 200.0 mg/kg/injection, schedule: Q01DX001 (ip), vehicle: Klucel (hydroxypropylcellulose) (HPC)): 99 % of control
T/C (dose: 400.0 mg/kg/injection, schedule: Q01DX001 (ip), vehicle: Klucel (hydroxypropylcellulose) (HPC)): 105 % of control

Cc1ccccc1CCC(=O)OCC(=O)c1ccc(-c2ccccc2)cc1
T/C [11]: 96 % of control
T/C [12]: 88 % of control
T/C [13]: 92 % of control
